In brackets after ≈: the same amount, converted by molar mass.
Test system: U251
Experiment: MTS cell viability assay, U251
Assay type: cell-based
Conditions: Homo sapiens, U-251; Table 8, tumor cells, preferred compounds; read-out: IC50 U251
Method: (§1) Primary viability screening: (1) the synthesized compounds 3a to 13d were respectively dissolved in DMSO to prepare a 40 μg/mL cannabicyclol and cannabicyclol derivative solutions.
(§2) (2) A control group: a 200 μL DMSO solvent.
(§3) (3) The solutions of compounds 3a to 13d were diluted in a twofold gradient to obtain cannabicyclol and cannabicyclol derivative solutions at concentrations of 40 μg/mL, 20 μg/mL, 10 μg/mL, 5 μg/mL, 2.5 μg/mL, 1.25 μg/mL, and 0.625 μg/mL, and 0.3125 μg/mL, respectively.
(§4) (4) Three glioblastoma stem cells (GSC-3, GSC-12, and GSC-18), three pancreatic cancer cell-derived stem cells (PANC-1-CSC, BXPC-3-CSC, and ASPC1-CSC), three liver cancer cell-derived stem cells (HepG2-CSC, MHCC97H-CSC, and SMMC7721-CSC), HEK-293T cells, 16 tumor cells (U251, U87, T98G, PANC1, BXPC3, ASPC1, HepG2, MHCC97H, SMMC7721, PC3, SKOV3, MDA-MB231, A549, HCT116, HEC-1B, MKN28), and differentiated glioblastoma stem cells (GSC-3diff and GSC-12diff) derived from GSC-3 and GSC-12 (all of the cells were provided by the Laboratory of Tumor Animal Model Preparation and Application Research, West China Hospital, Sichuan University) were inoculated into a 96-well plate at a concentration of 2×10^4 cells/well, and 100 μL of culture medium was then added to each well;
(§5) (5) 2) HEK-293T, GSC-3diff, GSC-12diff, and the 16 tumor cells were added with DMEM, 10% FBS, and 1% double antibody culture medium. Cancer stem cells (CSCs) were added with serum-free stem cell medium consisting of DMEM/F12, EGF (20 ng/mL), bFGF (20 ng/mL), B27 (1×), and 1% double antibody culture medium.
(§6) (6) Inoculated cells were put into a cell culture incubator for 24 hours, and after the cells were well adhered to the wall, the culture medium in the 96-well plate was discarded.
(§7) (7) 200 μL cannabicyclol and cannabicyclol derivatives solutions at different concentrations were added to the cultured cells.
(§8) (8) The experiment was set up with 3 replicates.
(§9) (9) The 96-well plate was placed in a cell culture incubator, and incubation was continued at 37° C. and 5% CO2 for 72 hours. Then, 100 μL of cannabicyclol and cannabicyclol derivative solution per well was discarded (100 μL of DMSO solvent was discarded for the control group), and 20 μL of LMTS (CellTiter AQueous Non-Radioactive Cell Proliferation Assay, #G3581) was mixed and continued to be placed in the cell incubator for 2 hours of incubation.
(§10) (10) The absorbance value at 490 nm was measured on an enzyme labeling apparatus, and the IC50 value was calculated.

Structure (SMILES)	IC50
CCCCCc1cc(OC(=O)CCN2CCOCC2)c2c(c1)OC1(C)CCC3C1C2C3(C)C (stereo not drawn) [Compound 9l]	24.7 µg/mL (≈ 54.3 µM)
CCCCCc1cc(OC(=O)C(C)CC)c2c(c1)OC1(C)CCC3C1C2C3(C)C (stereo not drawn) [Compound 9a]	> 40 µg/mL
CCCCCc1cc(OC(=O)CN(C)C)c2c(c1)OC1(C)CCC3C1C2C3(C)C (stereo not drawn) [Compound 9m]	> 40 µg/mL
CCCCCc1cc(OC(=O)CCN(C)C)c2c(c1)OC1(C)CCC3C1C2C3(C)C (stereo not drawn) [Compound 9n]	33.4 µg/mL (≈ 80.9 µM)
CCCCCc1cc2c(c(-c3ccccc3)c1)C1C3C(CCC3(C)O2)C1(C)C (stereo not drawn) [Compound 13b]	> 40 µg/mL
CCCCCc1cc(OC(=O)CN2CCOCC2)c2c(c1)OC1(C)CCC3C1C2C3(C)C (stereo not drawn) [Compound 9k]	> 40 µg/mL
CC12CCC3C1C(c1c(O)cc(-c4ccsc4)cc1O2)C3(C)C (stereo not drawn) [Compound 3t]	14 µg/mL (≈ 42.8 µM)
CCCCCc1cc(OC(=O)CC)c2c(c1)OC1(C)CCC3C1C2C3(C)C (stereo not drawn) [Compound 9c]	24.7 µg/mL (≈ 66.7 µM)

Same assay, conditions: human, 72 h

Structure (SMILES)	Cell viability in U251 (%)
CCCCCc1cc2c(c(-c3ccccc3)c1)C1C3C(CCC3(C)O2)C1(C)C (stereo not drawn) [Compound 13b]	≥100%
CC12CCC3C1C(c1c(O)cc(-c4ccsc4)cc1O2)C3(C)C (stereo not drawn) [Compound 3t]	98%

Same assay, conditions: primary viability screening, 72 hours, MTS; test concentration not stated

Structure (SMILES)	Cell viability in U251 (%)
CCCCCc1cc(OC(=O)CCN2CCOCC2)c2c(c1)OC1(C)CCC3C1C2C3(C)C (stereo not drawn) [Compound 9l]	90%
CCCCCc1cc(OC(=O)C(C)CC)c2c(c1)OC1(C)CCC3C1C2C3(C)C (stereo not drawn) [Compound 9a]	≥100%
CCCCCc1cc(OC(=O)CN(C)C)c2c(c1)OC1(C)CCC3C1C2C3(C)C (stereo not drawn) [Compound 9m]	≥100%
CCCCCc1cc(OC(=O)CCN(C)C)c2c(c1)OC1(C)CCC3C1C2C3(C)C (stereo not drawn) [Compound 9n]	89%
CCCCCc1cc(OC(=O)CN2CCOCC2)c2c(c1)OC1(C)CCC3C1C2C3(C)C (stereo not drawn) [Compound 9k]	≥100%
CCCCCc1cc(OC(=O)CC)c2c(c1)OC1(C)CCC3C1C2C3(C)C (stereo not drawn) [Compound 9c]	≥100%

Test system: HEK-293T
Experiment: MTS cell viability assay, HEK-293T (293T) normal cells
Assay type: cell-based
Conditions: Homo sapiens, HEK-293T; Table 8, normal cells, preferred compounds; read-out: IC50 293T
Method: as §1, §2, §3, §4, §5, §6, §7, §8, §9, §10

Structure (SMILES)	IC50
CCCCCc1cc(OC(=O)CCN2CCOCC2)c2c(c1)OC1(C)CCC3C1C2C3(C)C (stereo not drawn) [Compound 9l]	> 40 µg/mL
CCCCCc1cc(OC(=O)C(C)CC)c2c(c1)OC1(C)CCC3C1C2C3(C)C (stereo not drawn) [Compound 9a]	> 40 µg/mL
CCCCCc1cc(OC(=O)CN(C)C)c2c(c1)OC1(C)CCC3C1C2C3(C)C (stereo not drawn) [Compound 9m]	22.9 µg/mL (≈ 57.2 µM)
CCCCCc1cc(OC(=O)CCN(C)C)c2c(c1)OC1(C)CCC3C1C2C3(C)C (stereo not drawn) [Compound 9n]	35.2 µg/mL (≈ 85 µM)
CCCCCc1cc2c(c(-c3ccccc3)c1)C1C3C(CCC3(C)O2)C1(C)C (stereo not drawn) [Compound 13b]	> 40 µg/mL
CCCCCc1cc(OC(=O)CN2CCOCC2)c2c(c1)OC1(C)CCC3C1C2C3(C)C (stereo not drawn) [Compound 9k]	> 40 µg/mL
CC12CCC3C1C(c1c(O)cc(-c4ccsc4)cc1O2)C3(C)C (stereo not drawn) [Compound 3t]	16.4 µg/mL (≈ 50.2 µM)
CCCCCc1cc(OC(=O)CC)c2c(c1)OC1(C)CCC3C1C2C3(C)C (stereo not drawn) [Compound 9c]	> 40 µg/mL

Test system: not listed separately
Experiment: as above
Assay type: cell-based
Conditions: human
Method: as §1, §2, §3, §4, §5, §6, §7, §8, §9, §10

Structure (SMILES)	viability at 72 h
CCCCCc1cc2c(c(-c3ccccc3)c1)C1C3C(CCC3(C)O2)C1(C)C (stereo not drawn) [Compound 13b]	75%
CC12CCC3C1C(c1c(O)cc(-c4ccsc4)cc1O2)C3(C)C (stereo not drawn) [Compound 3t]	≥ 100%

Same assay, conditions: human, HEK-293T (293T) normal cells; primary viability screening, 72 hours, MTS; test concentration not stated; read-out: Cell viability in 293T (%)

Structure (SMILES)	viability at 72 h
CCCCCc1cc(OC(=O)CCN2CCOCC2)c2c(c1)OC1(C)CCC3C1C2C3(C)C (stereo not drawn) [Compound 9l]	93%
CCCCCc1cc(OC(=O)C(C)CC)c2c(c1)OC1(C)CCC3C1C2C3(C)C (stereo not drawn) [Compound 9a]	≥ 100%
CCCCCc1cc(OC(=O)CN(C)C)c2c(c1)OC1(C)CCC3C1C2C3(C)C (stereo not drawn) [Compound 9m]	≥ 100%
CCCCCc1cc(OC(=O)CCN(C)C)c2c(c1)OC1(C)CCC3C1C2C3(C)C (stereo not drawn) [Compound 9n]	≥ 100%
CCCCCc1cc(OC(=O)CN2CCOCC2)c2c(c1)OC1(C)CCC3C1C2C3(C)C (stereo not drawn) [Compound 9k]	≥ 100%
CCCCCc1cc(OC(=O)CC)c2c(c1)OC1(C)CCC3C1C2C3(C)C (stereo not drawn) [Compound 9c]	≥ 100%

Test system: GSC-3 (3#-GSC)
Experiment: MTS cell viability assay, glioblastoma stem cells GSC-3 (3#-GSC)
Assay type: cell-based
Conditions: 72 h
Method: as §1, §2, §3, §4, §5, §6, §7, §8, §9, §10

Structure (SMILES)	Cell viability in 3#-GSC (%)
CCCCCc1cc2c(c(-c3ccccc3)c1)C1C3C(CCC3(C)O2)C1(C)C (stereo not drawn) [Compound 13b]	50%
CC12CCC3C1C(c1c(O)cc(-c4ccsc4)cc1O2)C3(C)C (stereo not drawn) [Compound 3t]	50%

Same assay, conditions: GSC-3; Table 8, cancer stem cells, preferred compounds; read-out: IC50 3#-GSC

Structure (SMILES)	IC50
CCCCCc1cc(OC(=O)CCN2CCOCC2)c2c(c1)OC1(C)CCC3C1C2C3(C)C (stereo not drawn) [Compound 9l]	2.9 µg/mL (≈ 6.37 µM)
CCCCCc1cc(OC(=O)C(C)CC)c2c(c1)OC1(C)CCC3C1C2C3(C)C (stereo not drawn) [Compound 9a]	4.32 µg/mL (≈ 10.8 µM)
CCCCCc1cc(OC(=O)CN(C)C)c2c(c1)OC1(C)CCC3C1C2C3(C)C (stereo not drawn) [Compound 9m]	5.44 µg/mL (≈ 13.6 µM)
CCCCCc1cc(OC(=O)CCN(C)C)c2c(c1)OC1(C)CCC3C1C2C3(C)C (stereo not drawn) [Compound 9n]	7.79 µg/mL (≈ 18.8 µM)
CCCCCc1cc2c(c(-c3ccccc3)c1)C1C3C(CCC3(C)O2)C1(C)C (stereo not drawn) [Compound 13b]	4.73 µg/mL (≈ 12.6 µM)
CCCCCc1cc(OC(=O)CN2CCOCC2)c2c(c1)OC1(C)CCC3C1C2C3(C)C (stereo not drawn) [Compound 9k]	5.37 µg/mL (≈ 12.2 µM)
CC12CCC3C1C(c1c(O)cc(-c4ccsc4)cc1O2)C3(C)C (stereo not drawn) [Compound 3t]	3 µg/mL (≈ 9.17 µM)
CCCCCc1cc(OC(=O)CC)c2c(c1)OC1(C)CCC3C1C2C3(C)C (stereo not drawn) [Compound 9c]	9.32 µg/mL (≈ 25.2 µM)

Same assay, conditions: judged in words from preliminary viability screening against 3#-GSC, 293T and U251

Structure (SMILES)	selective anti-glioma stem cell viability
CCCCCc1cc2c(c(-c3ccccc3)c1)C1C3C(CCC3(C)O2)C1(C)C (stereo not drawn) [Compound 13b]	both the viability and selectivity were significantly reduced
CC12CCC3C1C(c1c(O)cc(-c4ccsc4)cc1O2)C3(C)C (stereo not drawn) [Compound 3t]	weak selective anti-glioma stem cell viability
CCCCCc1cc(OC(=O)CC)c2c(c1)OC1(C)CCC3C1C2C3(C)C (stereo not drawn) [Compound 9c]	both the viability and selectivity were maintained

Same assay, conditions: primary viability screening, 72 hours, MTS; test concentration not stated

Structure (SMILES)	Cell viability in 3#-GSC (%)
CCCCCc1cc(OC(=O)CCN2CCOCC2)c2c(c1)OC1(C)CCC3C1C2C3(C)C (stereo not drawn) [Compound 9l]	32%
CCCCCc1cc(OC(=O)C(C)CC)c2c(c1)OC1(C)CCC3C1C2C3(C)C (stereo not drawn) [Compound 9a]	52%
CCCCCc1cc(OC(=O)CN(C)C)c2c(c1)OC1(C)CCC3C1C2C3(C)C (stereo not drawn) [Compound 9m]	42%
CCCCCc1cc(OC(=O)CCN(C)C)c2c(c1)OC1(C)CCC3C1C2C3(C)C (stereo not drawn) [Compound 9n]	32%
CCCCCc1cc(OC(=O)CN2CCOCC2)c2c(c1)OC1(C)CCC3C1C2C3(C)C (stereo not drawn) [Compound 9k]	43%
CCCCCc1cc(OC(=O)CC)c2c(c1)OC1(C)CCC3C1C2C3(C)C (stereo not drawn) [Compound 9c]	28%

Source: patent US20250353825A1, “CANNABICYCLOL DERIVATIVES AND PREPARATION METHODS THEREOF” (priority 2023, published 2025)
